Patent publication US10100079B2, “Progesterone-cationic lipid hybrid as anticancer agent and the process of synthesis thereof” (Council of Scientific & Industrial Research, priority 2016, dated 2018)

Experiments:
[1] = system: NIH-3T3; test: MTT cytotoxicity assay, NIH-3T3; format: cell-based, murine; details: Mus musculus, NIH3T3; MTT, 48 h continuous treatment, non-cancer cell; read-out: IC50 NIH-3T3
Description: (§1) All cells were grown into mycoplasma free condition. […] All cells were grown up to 75-85% confluency after which cells were trypsinized, counted and seeded, in 96-well plates for cell viability studies, 6-well plates for apoptosis studies, 60 mm dish for cell cycle studies and in 25 cm^2 or 75 cm^2 tissue culture flasks for Western blot studies. The primary stock of the cationic progesterone molecules were made in cell culture grade DMSO and from that secondary stock was prepared by serial dilution with cell culture grade DMSO. The final working concentrations were prepared by diluting the secondary stock in cell culture media keeping the DMSO concentration in working solution below 0.2% with respect to cell culture medium. […] For this assay, 12-18 h before treatment cells were plated in 96-well plate at 5000 cells/well density. […] After completion of the treatment, 10 μL of MTT solution (5 mg/mL) was added in each well and incubated for 4 h. Then the media was removed carefully, and the reduced MTT was dissolved in 1:1 (v/v) DMSO/Methanol and absorbance was measured using multimode reader (Synergy H1, BioTek). Results were represented as percentage of viability={[A550(treated cells)−background]/[A550(untreated cells)−background]}×100. The result was summarized and provided as IC50 table in Table 1.

[2] = system: COS-1; test: MTT cytotoxicity assay, COS-1; format: cell-based; details: Chlorocebus aethiops, COS-1; MTT, 48 h continuous treatment, non-cancer cell; read-out: IC50 COS-1
Description: as §1

[3] = system: MDA-MB-231; test: MTT cytotoxicity assay, MDA-MB-231; format: cell-based, human; details: Homo sapiens, MDA-MB-231; MTT, 48 h continuous treatment; read-out: IC50 MDA-MB-231
Description: as §1

[4] = system: B16F10; test: MTT cytotoxicity assay, B16F10; format: cell-based, murine; details: Mus musculus, B16-F10; MTT, 48 h continuous treatment; read-out: IC50 B16F10
Description: as §1

[5] = system: T47D; test: MTT cytotoxicity assay, T47D; format: cell-based; details: Homo sapiens, MTT, 48 h continuous treatment, read-out: IC50 T47D
Description: as §1

[6] = system: CHO; test: MTT cytotoxicity assay, CHO; format: cell-based, Chinese hamster; details: Cricetulus griseus, MTT, 48 h continuous treatment, non-cancer cell, read-out: IC50 CHO
Description: as §1

[7] = system: OVCAR-3; test: MTT cytotoxicity assay, OVCAR-3; format: cell-based; details: Homo sapiens, OVCAR-3; MTT, 48 h continuous treatment; read-out: IC50 OVCAR-3
Description: as §1

[8] = system: MCF7; test: MTT cytotoxicity assay, MCF7; format: cell-based; details: Homo sapiens, MCF7; MTT, 48 h continuous treatment; read-out: IC50 MCF7
Description: as §1

[9] = system: non-cancer cells CHO, COS-1 and NIH-3T3; test: MTT viability, tested non-cancer cells (combination treatment study, FIG. 1B); format: cell-based; details: 48 h, 2.5 μM-40 μM
Description: FIG. 1B: The viability studies of non-cancer cells CHO, COS-1 and NIIH-3T3 after 48 h of continuous treatment with compound 1 (10 μM), 10C [cationic lipid control molecule not containing progesterone moiety]
(§2) Cytotoxicity assay of the different compounds were carried out by using 3-(4,5-dimethylthiazol-2-yl)-2,5-diphenyltetrazolium bromide (MTT). For this assay, 12-18 h before treatment cells were plated in 96-well plate at 5000 cells/well density. After incubation cells were treated continuously for 48 h with respective compounds at different concentration (2.5 μM-40 μM). After completion of the treatment, 10 μL of MTT solution (5 mg/mL) was added in each well and incubated for 4 h. Then the media was removed carefully, and the reduced MTT was dissolved in 1:1 (v/v) DMSO/Methanol and absorbance was measured using multimode reader (Synergy H1, BioTek). Results were represented as percentage of viability={[A550(treated cells)−background]/[A550(untreated cells)−background]}×100. The result was summarized and provided as IC50 table in Table 1.
(§3) For combination treatment effect, cells were plated in 96 well plates at 5000 cells/well. […] Following 48 h of treatment cell viability was measured following above mentioned MTT study.

[10] = system: cancer cells T47D, OVCAR-3, MDA-MB-231, MCF-7 and B16F10; test: MTT viability, all tested cancer cells (combination treatment study, FIG. 1A); format: cell-based; details: 48 h, 2.5 μM-40 μM
Description: FIG. 1A: The viability studies of cancer cells T47D, OVCAR-3, MDA-MB-231, MCF-7 and B16F10 after 48 h of continuous treatment with compound 1 (10 μM), 10C [cationic lipid control molecule not containing progesterone moiety]
as §2, §3

| SMILES | IC50 [1] [µM] | IC50 [2] [µM] | IC50 [3] [µM] | IC50 [4] [µM] | IC50 [5] [µM] | IC50 [6] [µM] | IC50 [7] [µM] | IC50 [8] [µM] | toxicity towards tested non-cancer cells [9] | cell killing in all tested cancer cells [10] |
| --- | --- | --- | --- | --- | --- | --- | --- | --- | --- | --- |
| CCCCCC[N+](C)(CCCCCC)CCNC(=O)CCC(=O)O[C@@H](C)[C@H]1CCC2C3CCC4=CC(=O)CC[C@]4(C)C3CC[C@@]21C (stereo partly drawn) [Compound 6a, N-(2-(4-((1S)-1-((10R,13S,17S)-10,13-dimethyl-3-oxo-2,3,6,7,8,9,10,11,12,13,14,15,16,17-tetradecahydro-1H-cyclopenta[a]phenanthren-17-yl)ethoxy)-4-oxobutanamido)ethyl)-N-hexyl-N-methylhexan-1-aminium chloride] | > 20 | > 20 | 5.78 ± 0.38 | > 15 | 7.43 ± 0.76 | 17.9 ± 0.56 | 13.9 ± 0.53 | > 15 |  |  |
| CCCCCCCC[N+](C)(CCCCCCCC)CCNC(=O)CCC(=O)O[C@@H](C)[C@H]1CCC2C3CCC4=CC(=O)CC[C@]4(C)C3CC[C@@]21C.[Cl-] (stereo partly drawn) [Compound 6b, N-(2-(4-((1S)-1-((10R,13S,17S)-10,13-dimethyl-3-oxo-2,3,6,7,8,9,10,11,12,13,14,15,16,17-tetradecahydro-1H-cyclopenta[a]phenanthren-17-yl)ethoxy)-4-oxobutanamido)ethyl)-N-methyl-N-octyloctan-1-aminium chloride] | > 20 | > 20 | 8.56 ± 0.52 | 9.95 ± 0.32 | 4.07 ± 0.23 | 17 ± 0.41 | 11.9 ± 0.45 | 8.28 ± 0.12 | largely non-toxic | significant amount of cell killing |
| CCCCCCCCCCCC[N+](C)(CCCCCCCCCCCC)CCNC(=O)CCC(=O)O[C@@H](C)[C@H]1CCC2C3CCC4=CC(=O)CC[C@]4(C)C3CC[C@@]21C.[Cl-] (stereo partly drawn) [Compound 6d, N-(2-(4-((1S)-1-((10R,13S,17S)-10,13-dimethyl-3-oxo-2,3,6,7,8,9,10,11,12,13,14,15,16,17-tetradecahydro-1H-cyclopenta[a]phenanthren-17-yl)ethoxy)-4-oxobutanamido)ethyl)-N-dodecyl-N-methyldodecan-1-aminium chloride] | > 20 | > 20 | 6.36 ± 0.19 | 9.54 ± 0.18 | 12.8 ± 0.43 | 17.5 ± 0.18 | 6.83 ± 0.13 | 7.04 ± 0.28 | largely non-toxic | significant amount of cell killing |
| CCCCCCCCCCCCCC[N+](C)(CCCCCCCCCCCCCC)CCNC(=O)CCC(=O)O[C@@H](C)[C@H]1CCC2C3CCC4=CC(=O)CC[C@]4(C)C3CC[C@@]21C (stereo partly drawn) [Compound 6e, N-(2-(4-((1S)-1-((10R,13S,17S)-10,13-dimethyl-3-oxo-2,3,6,7,8,9,10,11,12,13,14,15,16,17-tetradecahydro-1H-cyclopenta[a]phenanthren-17-yl)ethoxy)-4-oxobutanamido)ethyl)-N-methyl-N-tetradecyltetradecan-1-aminium chloride] | > 20 | > 20 | > 15 | > 15 | > 15 | > 15 | > 15 | > 15 |  |  |
| CCCCCCCCCCCCCCCC[N+](C)(CCCCCCCCCCCCCCCC)CCNC(=O)CCC(=O)O[C@@H](C)[C@H]1CCC2C3CCC4=CC(=O)CC[C@]4(C)C3CC[C@@]21C (stereo partly drawn) [Compound 6f, N-(2-(4-((1S)-1-((10R,13S,17S)-10,13-dimethyl-3-oxo-2,3,6,7,8,9,10,11,12,13,14,15,16,17-tetradecahydro-1H-cyclopenta[a]phenanthren-17-yl)ethoxy)-4-oxobutanamido)ethyl)-N-hexadecyl-N-methylhexadecan-1-aminium chloride] | > 20 | > 20 | > 15 | > 15 | > 15 | > 15 | > 15 | > 15 |  |  |
| CCCCCCCCCCCCCCCCCC[N+](C)(CCCCCCCCCCCCCCCCCC)CCNC(=O)CCC(=O)O[C@@H](C)[C@H]1CCC2C3CCC4=CC(=O)CC[C@]4(C)C3CC[C@@]21C (stereo partly drawn) [Compound 6g, N-(2-(4-((1S)-1-((10R,13S,17S)-10,13-dimethyl-3-oxo-2,3,6,7,8,9,10,11,12,13,14,15,16,17-tetradecahydro-1H-cyclopenta[a]phenanthren-17-yl)ethoxy)-4-oxobutanamido)ethyl)-N-methyl-N-octadecyloctadecan-1-aminium chloride] | > 20 | > 20 | > 15 | > 15 | > 15 | > 15 | > 15 | > 15 |  |  |
